In PMC8330636, “Design and enantioselective synthesis of 3-(α-acrylic acid) benzoxaboroles to combat carbapenemase resistance” (Chemical Communications (Cambridge, England), 2021):
Like-named read-outs stand apart in the source and are kept apart here.

Assays:
OXA-48 [1] = molecular target: T1, OXA-48 (Klebsiella pneumoniae, UniProt Q6XEC0); test: inhibition of purified recombinant enzyme; format: biochemical; settings: read-out: Class D OXA-48
T1 construct: purified recombinant; class D serine beta-lactamase; construct details only in ESI

KPC-2 [2] = molecular target: T2, KPC-2 (Klebsiella pneumoniae, UniProt Q9F663); test: inhibition of purified recombinant enzyme; format: biochemical; settings: read-out: Class A KPC-2
T2 construct: purified recombinant; class A serine beta-lactamase; construct details only in ESI

KPC-2 [3] = molecular target: T2, KPC-2; test: biochemical; parameters: inhibition of purified recombinant beta-lactamases, IC50; settings: read-out: Class A KPC-2
OXA-48 [4] = molecular target: T1, OXA-48; test: biochemical; parameters: inhibition of purified recombinant beta-lactamases, IC50; settings: read-out: Class D OXA-48
Class B1 NDM-1 [5] = molecular target: T3, Class B1 NDM-1 (Klebsiella pneumoniae, UniProt C7C422); test: biochemical; parameters: inhibition of purified recombinant beta-lactamases, IC50
T3 construct: gene blaNDM-1

Class B1 NDM-1 [6] = molecular target: T3, Class B1 NDM-1; test: biochemical; parameters: inhibition of purified recombinant beta-lactamases, IC50 from dose-response curves; read-out not stated in excerpts
Description: This selectivity was mostly, but not exclusively observed for the other β-lactamases, substantial inhibition of which was more sporadic than for KPC-2 (Table 2). The KPC-2 stereoselectivity for the benzoxaborole derivatives is interesting since the penicillin substrates of some of the β-lactamases have a (2S) C-3 carbon adjacent to their C-2 carboxylate. The difference in results for the (R)- and (S)-benzoxaboroles may reflect different distances between their carboxylate and electrophilic boron; the analogous carboxylate to β-lactam distance is proposed to be important with respect to antibacterial activity.[11]

T3 sequence (C7C422 whole entry, looked up): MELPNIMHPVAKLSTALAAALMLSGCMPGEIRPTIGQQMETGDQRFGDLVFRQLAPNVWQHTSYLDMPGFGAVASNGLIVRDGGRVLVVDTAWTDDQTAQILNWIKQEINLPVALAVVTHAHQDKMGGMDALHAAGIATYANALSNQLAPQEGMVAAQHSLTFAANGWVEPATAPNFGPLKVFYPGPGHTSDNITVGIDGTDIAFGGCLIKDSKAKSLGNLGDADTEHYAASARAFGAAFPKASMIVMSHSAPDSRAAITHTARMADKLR
T1 sequence (Q6XEC0 23-265 limits assumed): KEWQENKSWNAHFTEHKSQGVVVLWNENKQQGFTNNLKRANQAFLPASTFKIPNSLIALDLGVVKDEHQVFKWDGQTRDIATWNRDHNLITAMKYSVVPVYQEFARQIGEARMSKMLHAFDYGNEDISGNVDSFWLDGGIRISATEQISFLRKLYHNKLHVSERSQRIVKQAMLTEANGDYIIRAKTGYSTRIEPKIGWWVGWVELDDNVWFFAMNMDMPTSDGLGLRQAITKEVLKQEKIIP
T2 sequence (Q9F663 25-293 limits assumed): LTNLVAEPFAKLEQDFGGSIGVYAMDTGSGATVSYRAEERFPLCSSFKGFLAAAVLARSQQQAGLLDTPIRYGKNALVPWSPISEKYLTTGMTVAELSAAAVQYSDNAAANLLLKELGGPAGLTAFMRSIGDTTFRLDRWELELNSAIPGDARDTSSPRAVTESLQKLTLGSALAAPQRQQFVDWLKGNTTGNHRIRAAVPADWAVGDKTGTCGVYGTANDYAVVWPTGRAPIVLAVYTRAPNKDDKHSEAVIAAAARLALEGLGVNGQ

SMILES	IC50 (OXA-48 [1])	IC50 (KPC-2 [2])	IC50 (KPC-2 [3])	IC50 (OXA-48 [4])	IC50 (Class B1 NDM-1 [5])	IC50 (Class B1 NDM-1 [6])
C=C(C(=O)O)[C@@H]1OB(O)c2ccccc21 [(R)-4a]	15.8 µM	3.08 µM	–	–	–	–
C=C(C(=O)O)[C@@H]1OB(O)c2ccc(OC)cc21 [(R)-4c]	42.5 µM	7.62 µM	–	–	–	–
C=C(C(=O)O)[C@@H]1OB(O)c2ccc(F)cc21 [(R)-4f]	10.1 µM	3.87 µM	–	–	–	–
C=C(C(=O)O)[C@@H]1OB(O)c2cc(F)ccc21 [(R)-4j]	5.97 µM	0.97 µM	–	–	–	–
C=C(C(=O)O)[C@@H]1OB(O)c2ccc(Oc3ccc(C)cc3)cc21 [(R)-4m]	–	–	3.58 µM	6.24 µM	352 µM	–
C=C(C(=O)O)[C@@H]1OB(O)c2ccc(Oc3cccc(C)c3)cc21 [(R)-4n]	–	–	2.11 µM	4.1 µM	110 µM	–
C=C(C(=O)O)[C@@H]1OB(O)c2ccc(Oc3ccc(C(F)(F)F)cc3)cc21 [(R)-4o]	–	–	3.76 µM	7.73 µM	> 600 µM	–
C=C(C(=O)O)[C@@H]1OB(O)c2ccc(OCc3ccccc3)cc21 [(R)-4p]	–	–	1.17 µM	7.55 µM	> 300 µM	–
C=C(C(=O)O)[C@@H]1OB(O)c2cc(Oc3ccc(OC)cc3)ccc21 [(R)-4q]	0.43 µM	0.07 µM	–	–	–	–
C=C(C(=O)O)[C@@H]1OB(O)c2cc(Oc3ccc([N+](=O)[O-])cc3)ccc21 [(R)-4r]	–	–	0.12 µM	2.64 µM	308 µM	–
C=C(C(=O)O)[C@@H]1OB(O)c2cc(Oc3ccc(Cl)cc3)ccc21 [(R)-4s]	–	–	0.27 µM	0.85 µM	146 µM	–
C=C(C(=O)O)[C@@H]1OB(O)c2cc(OCc3ccccc3)ccc21 [(R)-4t]	–	–	0.55 µM	1.33 µM	382 µM	–
C=C(C(=O)O)[C@H]1OB(O)c2ccccc21 [(S)-4a]	14.1 µM	0.48 µM	–	–	–	> 600 µM
C=C(C(=O)O)[C@H]1OB(O)c2ccc(OC)cc21 [(S)-4c]	34.1 µM	0.54 µM	–	–	–	–
C=C(C(=O)O)[C@H]1OB(O)c2ccc(F)cc21 [(S)-4f]	14.7 µM	0.34 µM	–	–	–	–
C=C(C(=O)O)[C@H]1OB(O)c2cc(F)ccc21 [(S)-4j]	12 µM	0.49 µM	–	–	–	–
C=C(C(=O)O)[C@H]1OB(O)c2cc(Oc3ccc(OC)cc3)ccc21 [(S)-4q]	0.74 µM	0.01 µM	–	–	–	–
NC(=O)[C@@H]1CC[C@@H]2CN1C(=O)N2OS(=O)(=O)O [Avibactam]	–	–	–	–	–	> 600 µM
